# Patent US20260364089A1, “PYRIDOPYRIMIDINE KRAS INHIBITORS” (Treeline Biosciences, Inc., priority 2022, published 2026)
# Molecular target: T1, KRas G12V (Homo sapiens, UniProt P01116, G12V)
# T1 construct: Biotinylated KRas G12V (aa 1-169) loaded with GDP nucleotide; biotin (biotinylated)
# Experiment: SOS1-Catalyzed Nucleotide Exchange Assay, KRas G12V (Method 2)
# Type: biochemical
# Conditions: Method 2, A; 5 nM KRas G12V (aa 1-169, GDP-loaded), 50 nM SOS1; read-out: KRas G12V IC50 (nM) (Method 2, A)
# Description: KRas G12V [Method 2]: Compounds were pre-dispensed via Echo liquid handling (acoustic, touch-free) to generate assay ready plates (ARP). More precisely, a 10-point concentration response curve for each compound was prepared with appropriate top concentration (1 μM, 10 μM, 100 μM). Biotinylated KRas G12V (aa 1-169) loaded with GDP nucleotide and Streptavidin-Europium (SA-EU, Columbia Biosciences) were preincubated in assay buffer (20 mM HEPES pH 7.4, 150 mM NaCl, 5 mM MgCl2, 1 mM DTT, 0.01% Brij-35, 0.3 mg/mL BSA) on ice for 30 min. Separately SOS1 (aa 546-1049) and EDA-GTP-DY647P1 (Jena Bioscience) were preincubated in assay buffer on ice for 30 min. After 30 minutes of incubation for the assay components, 5 μL buffer and 5 μL of KRas G12V-SA-Eu were added to each well of the ARP. After a further 30 min, 5 μL of SOS1-EDA-GTP-D467P1 was added to start the nucleotide exchange reaction. Final concentration in the assay were 5 nM KRas G12V, 50 nM SOS1 (aa 564-1049). The reaction was allowed to proceed for 60-90 minutes after which the plate was read on a plate reader. After normalization of the raw data, the data was fit to a four-parameter logistic curve.
# T1 sequence (P01116 1-169 G12V): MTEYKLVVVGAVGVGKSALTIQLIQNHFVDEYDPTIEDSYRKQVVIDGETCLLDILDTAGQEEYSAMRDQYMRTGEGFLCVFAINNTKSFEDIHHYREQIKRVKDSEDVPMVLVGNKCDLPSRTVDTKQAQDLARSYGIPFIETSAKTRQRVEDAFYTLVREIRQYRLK
row,Compound,IC50 [nM]
1,"Nc1ccc2c(c1)-c1ncc3c(nc(OC[C@@]45CCCN4C[C@H](F)C5)nc3c1F)N1CCCC(O)(CCNC(=O)CCCC2)C1 (stereo partly drawn) [Compound 157a, 3^5-amino-2^8-fluoro-2^2-(((2R,7aS)-2-fluorotetrahydro-1H-pyrrolizin-7a(5H)-yl)methoxy)-1^3-hydroxy-9-aza-2(4,7)-pyrido[4,3-d]pyrimidina-1(1,3)-piperidina-3(1,2)-benzenacycloundecaphan-8-one]",1000 to 10000
2,"Nc1cc(Cl)c2c(c1)-c1c(Cl)cc3c(nc(OC[C@@]45CCCN4C[C@H](F)C5)nc3c1F)N1CCCC(O)(CCNC(=O)CCCC2)C1 (stereo partly drawn) [Compound 158a, 3^5-amino-2^6,3^3-dichloro-2^8-fluoro-2^2-(((2R,7aS)-2-fluorotetrahydro-1H-pyrrolizin-7a(5H)-yl)methoxy)-1^3-hydroxy-9-aza-2(4,7)-quinazolina-1(1,3)-piperidina-3(1,2)-benzenacycloundecaphan-8-one]",1000 to 10000
3,"O=C1CCCc2c(F)ccc3cccc(c23)-c2ncc3c(nc(OC[C@@]45CCCN4C[C@H](F)C5)nc3c2F)N2CCOCC(CN1)C2 (stereo partly drawn) [Compound 193a, 2^8,3^7-difluoro-2^2-(((2R,7aS)-2-fluorotetrahydro-1H-pyrrolizin-7a(5H)-yl)methoxy)-8-aza-1(4,6)-oxazepana-2(4,7)-pyrido[4,3-d]pyrimidina-3(1,8)-naphthalenacyclononaphan-7-one]",100 to 1000
4,"Nc1cc2c3c(c(F)ccc3c1)CCCC(=O)NCC1COCCN(C1)c1nc(OC[C@@]34CCCN3C[C@H](F)C4)nc3c(F)c-2ncc13 (stereo partly drawn) [Compound 192a, 3^3-amino-2^8,3^7-difluoro-2^2-(((2R,7aS)-2-fluorotetrahydro-1H-pyrrolizin-7a(5H)-yl)methoxy)-8-aza-1(4,6)-oxazepana-2(4,7)-pyrido[4,3-d]pyrimidina-3(1,8)-naphthalenacyclononaphan-7-one]",100 to 1000
5,"O=C1CCCc2c(F)ccc3cc(O)cc(c23)-c2ncc3c(nc(OC[C@@]45CCCN4C[C@H](F)C5)nc3c2F)N2CCOCC(CCN1)C2 (stereo partly drawn) [Compound 194a, 2^8,3^7-difluoro-2^2-(((2R,7aS)-2-fluorotetrahydro-1H-pyrrolizin-7a(5H)-yl)methoxy)-3^3-hydroxy-8-aza-1(4,6)-oxazepana-2(4,7)-pyrido[4,3-d]pyrimidina-3(1,8)-naphthalenacyclodecaphan-7-one]",≤ 100
6,"Nc1cc(Cl)c2c(c1)-c1ncc3c(nc(OC[C@@]45CCCN4C[C@H](F)C5)nc3c1F)N1CCCC(O)(CCNC(=O)CCCC2)C1 (stereo partly drawn) [Compound 156a, 3^5-amino-3^3-chloro-2^8-fluoro-2^2-(((2R,7aS)-2-fluorotetrahydro-1H-pyrrolizin-7a(5H)-yl)methoxy)-13-hydroxy-9-aza-2(4,7)-pyrido[4,3-d]pyrimidina-1(1,3)-piperidina-3(1,2)-benzenacycloundecaphan-8-one]",≤ 100
7,"O=C1CCCc2c(F)ccc3cccc(c23)-c2ccc3c(nc(OC[C@@]45CCCN4C[C@H](F)C5)nc3c2F)N2CCCC(CCN1)C2 (stereo partly drawn) [Compound 191a, 2^8,3^7-difluoro-2^2-(((2R,7aS)-2-fluorotetrahydro-1H-pyrrolizin-7a(5H)-yl)methoxy)-8-aza-2(4,7)-quinazolina-1(1,3)-piperidina-3(1,8)-naphthalenacyclodecaphan-7-one]",100 to 1000
8,"Nc1cc2c(cc1F)CCCCC(=O)NCCC1(O)CCCN(C1)c1nc(OC[C@@]34CCCN3C[C@H](F)C4)nc3c(F)c-2ncc13 (stereo partly drawn) [Compound 161a, 3^5-amino-2^8,3^4-difluoro-2^2-(((2R,7aS)-2-fluorotetrahydro-1H-pyrrolizin-7a(5H)-yl)methoxy)-1^3-hydroxy-9-aza-2(4,7)-pyrido[4,3-d]pyrimidina-1(1,3)-piperidina-3(1,2)-benzenacycloundecaphan-8-one]",1000 to 10000
9,"O=C1CCCc2c(F)ccc3cc(O)cc(c23)-c2ncc3c(nc(OC[C@@]45CCCN4C[C@H](F)C5)nc3c2F)N2CCCC(CN1)C2 (stereo partly drawn) [Compound 135a, 2^8,3^7-difluoro-2^2-(((2R,7aS)-2-fluorotetrahydro-1H-pyrrolizin-7a(5H)-yl)methoxy)-3^3-hydroxy-8-aza-2(4,7)-pyrido[4,3-d]pyrimidina-1(1,3)-piperidina-3(1,8)-naphthalenacyclononaphan-7-one]",≤ 100

# Same assay, conditions: Method 2, B; 5 nM KRas G12V (aa 1-169, GDP-loaded), 50 nM SOS1; read-out: KRas G12V IC50 (nM) (Method 2, B)
row,Compound,IC50 [nM]
1,"Nc1cc2c(cc1F)CCCCC(=O)NCCC1CCCN(C1)c1nc(OC[C@@]34CCCN3C[C@H](F)C4)nc3c(F)c-2ccc13 (stereo partly drawn) [Compound 163a, 3^5-amino-2^8,3^4-difluoro-2^2-(((2R,7aS)-2-fluorotetrahydro-1H-pyrrolizin-7a(5H)-yl)methoxy)-9-aza-2(4,7)-quinazolina-1(1,3)-piperidina-3(1,2)-benzenacycloundecaphan-8-one]",1000 to 10000
2,"Nc1cc2c(cc1F)CCCCC(=O)NCCC1CCCN(C1)c1nc(OC[C@@]34CCCN3C[C@H](F)C4)nc3c(F)c-2ncc13 (single isomer, unassigned) [Compound 159c]",10000 to 30000
3,"O=C1CCCc2c(F)ccc3cccc(c23)-c2ncc3c(nc(OC[C@@]45CCCN4C[C@H](F)C5)nc3c2F)N2CCOCC(CN1)C2 (stereo partly drawn) [Compound 193a, 2^8,3^7-difluoro-2^2-(((2R,7aS)-2-fluorotetrahydro-1H-pyrrolizin-7a(5H)-yl)methoxy)-8-aza-1(4,6)-oxazepana-2(4,7)-pyrido[4,3-d]pyrimidina-3(1,8)-naphthalenacyclononaphan-7-one]",100 to 1000
4,"Nc1cc2c(c(Cl)c1F)CCCCC(=O)NCCC1CCCN(C1)c1nc(OC[C@@]34CCCN3C[C@H](F)C4)nc3c(F)c-2ccc13 (stereo partly drawn) [Compound 174a, 3^5-amino-3^3-chloro-2^8,3^4-difluoro-2^2-(((2R,7aS)-2-fluorotetrahydro-1H-pyrrolizin-7a(5H)-yl)methoxy)-9-aza-2(4,7)-quinazolina-1(1,3)-piperidina-3(1,2)-benzenacycloundecaphan-8-one]",100 to 1000
5,"Nc1cc2c3c(c(F)ccc3c1)CCCC(=O)NCC1COCCN(C1)c1nc(OC[C@@]34CCCN3C[C@H](F)C4)nc3c(F)c-2ncc13 (stereo partly drawn) [Compound 192a, 3^3-amino-2^8,3^7-difluoro-2^2-(((2R,7aS)-2-fluorotetrahydro-1H-pyrrolizin-7a(5H)-yl)methoxy)-8-aza-1(4,6)-oxazepana-2(4,7)-pyrido[4,3-d]pyrimidina-3(1,8)-naphthalenacyclononaphan-7-one]",100 to 1000
6,"Nc1cc2c(c(Cl)c1F)CCCCC(=O)NCCC1CCCN(C1)c1nc(OC[C@@]34CCCN3C[C@H](F)C4)nc3c(F)c-2ncc13 (stereo partly drawn) [Compound 172a, 3^5-amino-3^3-chloro-2^8,3^4-difluoro-2^2-(((2R,7aS)-2-fluorotetrahydro-1H-pyrrolizin-7a(5H)-yl)methoxy)-9-aza-2(4,7)-pyrido[4,3-d]pyrimidina-1(1,3)-piperidina-3(1,2)-benzenacycloundecaphan-8-one]",≤ 100
7,"O=C1CCCc2c(F)ccc3cc(O)cc(c23)-c2ncc3c(nc(OC[C@@]45CCCN4C[C@H](F)C5)nc3c2F)N2CCOCC(CCN1)C2 (stereo partly drawn) [Compound 194a, 2^8,3^7-difluoro-2^2-(((2R,7aS)-2-fluorotetrahydro-1H-pyrrolizin-7a(5H)-yl)methoxy)-3^3-hydroxy-8-aza-1(4,6)-oxazepana-2(4,7)-pyrido[4,3-d]pyrimidina-3(1,8)-naphthalenacyclodecaphan-7-one]",≤ 100
8,"CN1C[C@H](F)C[C@H]1COc1nc2c3cnc(c(F)c3n1)-c1cc(N)cc(Cl)c1CCCCC(=O)NCCC1CCCN2C1 (stereo partly drawn) [Compound 179a, 3^5-amino-3^3-chloro-2^8-fluoro-2^2-(((2S,4R)-4-fluoro-1-methylpyrrolidin-2-yl)methoxy)-9-aza-2(4,7)-pyrido[4,3-d]pyrimidina-1(1,3)-piperidina-3(1,2)-benzenacycloundecaphan-8-one]",100 to 1000
9,"O=C1CCCCc2c(Cl)cc(O)cc2-c2ncc3c(nc(OC[C@@]45CCCN4C[C@H](F)C5)nc3c2F)N2CCCC(O)(CCN1)C2 (single isomer, unassigned) [Compound 140c]",≤ 100
10,"O=C1CCCCc2ccc3[nH]ncc3c2-c2ncc3c(nc(OC[C@@]45CCCN4C[C@H](F)C5)nc3c2F)N2CCCC(CCN1)C2 (stereo partly drawn) [Compound 167a, 2^8-fluoro-2^2-(((2R,7aS)-2-fluorotetrahydro-1H-pyrrolizin-7a(5H)-yl)methoxy)-1^1H-6-aza-2(7,4)-pyrido[4,3-d]pyrimidina-1(4,5)-indazola-3(1,3)-piperidinacycloundecaphan-7-one]",≤ 100
11,"CN1CCC[C@H]1CCOc1nc2c3cnc(c(F)c3n1)-c1cc(N)cc(Cl)c1CCCCC(=O)NCCC1CCCN2C1 (stereo partly drawn) [Compound 176a, 3^5-amino-3^3-chloro-2^8-fluoro-2^2-(2-((S)-1-methylpyrrolidin-2-yl)ethoxy)-9-aza-2(4,7)-pyrido[4,3-d]pyrimidina-1(1,3)-piperidina-3(1,2)-benzenacycloundecaphan-8-one]",100 to 1000
12,"Nc1cc(Cl)c2c(c1)-c1ncc3c(nc(OC[C@@]45CCCN4C[C@H](F)C5)nc3c1F)N1CCC(CCNC(=O)CCCC2)C1 (stereo partly drawn) [Compound 164a, 3^5-amino-3^3-chloro-2^8-fluoro-2^2-(((2R,7aS)-2-fluorotetrahydro-1H-pyrrolizin-7a(5H)-yl)methoxy)-9-aza-2(4,7)-pyrido[4,3-d]pyrimidina-1(1,3)-pyrrolidina-3(1,2)-benzenacycloundecaphan-8-one]",1000 to 10000
13,"O=C1CCCc2c(F)ccc3cccc(c23)-c2ccc3c(nc(OC[C@@]45CCCN4C[C@H](F)C5)nc3c2F)N2CCCC(CCN1)C2 (stereo partly drawn) [Compound 191a, 2^8,3^7-difluoro-2^2-(((2R,7aS)-2-fluorotetrahydro-1H-pyrrolizin-7a(5H)-yl)methoxy)-8-aza-2(4,7)-quinazolina-1(1,3)-piperidina-3(1,8)-naphthalenacyclodecaphan-7-one]",≤ 100
14,"CN(C)CC1(COc2nc3c4cnc(c(F)c4n2)-c2cc(N)cc(Cl)c2CCCCC(=O)NCCC2CCCN3C2)CC1 (stereo not drawn) [Compound 178, 3^5-amino-3^3-chloro-2^2-((1-((dimethylamino)methyl)cyclopropyl)methoxy)-2^8-fluoro-9-aza-2(4,7)-pyrido[4,3-d]pyrimidina-1(1,3)-piperidina-3(1,2)-benzenacycloundecaphan-8-one]",100 to 1000
15,"O=C1CCCc2c(F)ccc3cc(O)cc(c23)-c2ncc3c(nc(OC[C@@]45CCCN4C[C@H](F)C5)nc3c2F)N2CCOCC(CN1)C2 (stereo partly drawn) [Compound 173a, 2^8,3^7-difluoro-2^2-(((2R,7aS)-2-fluorotetrahydro-1H-pyrrolizin-7a(5H)-yl)methoxy)-3^3-hydroxy-8-aza-1(4,6)-oxazepana-2(4,7)-pyrido[4,3-d]pyrimidina-3(1,8)-naphthalenacyclononaphan-7-one]",≤ 100
